Assay results reported in PMC10788915, “Fragment Merging, Growing, and Linking Identify New Trypanothione Reductase Inhibitors for Leishmaniasis” (Journal of Medicinal Chemistry, 2024).
Where two headings read alike, the source gives them in different places.

Legend:
[1] = system: L. infantum axenic amastigotes; experiment: In vitro inhibition of axenic amastigote growth (MTT); type: cell-based, Leishmania infantum; conditions: 72 h, read-out: axenic amastigote EC50 ± SE (95% CI)
Method: Axenic amastigote growth inhibition was evaluated using L. infantum strain (MHOM/TN/80/IPT1, WHO international reference strain). Axenic amastigote cultures were obtained as described previously with modifications.[45] Promastigotes were grown in Schneider’s Drosophila medium (SIGMA) containing 10% heat-inactivated fetal calf serum (FCS)(GIBCO-BRL) and 2% gentamicin (50 mg/L)(Sigma) in 25 cm^2 flasks at 22 °C. After 4–5 days, the parasites were adjusted to 1 × 10^6 parasites/mL in axenic medium MAA/20 consisting of modified medium 199 (Gibco BRL) with Hanks’ salts supplemented with 0.5% tryptic soy broth (Sigma), 0.01 mM bathocuproine disulfonic acid, 3 mM L-cysteine, 15 mM D-glucose, 5 mM L-glutamine, 4 mM NaHCO3, 0.023 mM bovine hemin, and 25 mM HEPES to a final pH of 6.5 and supplemented with 20% pretested FCS, and axenic amastigotes were obtained by shifting the incubation conditions: 198 μL of suspension was seeded in triplicate in 96-well flat bottom microplates and incubated at 37 °C, 5% CO2 for 48 h in order to allow the axenization. The amastigote cells were visualized under the light microscope to confirm transformation. Then, 2 μL of the selected compounds with varying concentrations were added: 100, 50, 25, 12.5, 6.25, 3.12, 1.56, 0.8, 0.4, 0.2, 0.1, 0.05 μM. […] Each experiment was conducted in triplicate for each drug concentration, and three independent experiments were performed. To estimate the 50% inhibitory concentration (IC50), the (3-[4.5-dimethylthiazol-2-yl]-2.5-diphenyltetrazolium bromide) (MTT) micromethod was used throughout the experiments with modification. After 72 h of incubation, 30 μL of MTT was added to each well, and the plates were further incubated for 3 h. The absorbance at 550 nm was measured with a 96-well scanner. Antileishmanial activity was expressed as the percentage of inhibition in the number of live parasites compared to that in the control (nontreated parasites). % inhibition was calculated as follows: % growth inhibition = [(absorb cell with drug × 100)/absorb cell control] – 100. Results were analyzed by GraphPad Prism 5.0, dose–response curves were obtained and IC50 deduced (GraphPad Software Inc., San Diego, USA).

[2] = molecular target: T1, Leishmania infantum TR (LiTR) (Leishmania infantum, UniProt A4HSF7); experiment: LiTR enzymatic inhibition assay (NADPH oxidation at 340 nm); type: biochemical; conditions: for IC50: 50 nM LiTR, 150 μM trypanothione, 100 μM NADPH, 25 °C; for gain in LiTR IC50 with respect to 5: compared to compound 5 (IC50 54.6 μM); for remaining activity at 10 µM: compound at 10 μM, mean ± SD, n = 3, read-out: LiTR residual activity %
T1 construct: The TbTR and LiTR genes were subcloned in a pET28b vector; 6-His (cleaved yes); made in house; host or cells: E. coli BL21(DE3), pET28b
Method: (§1) Enzymatic inhibition assays were performed in 50 mM HEPES pH 7.4, 40 mM NaCl at 25 °C using a JASCO V650 spectrophotometer equipped with a JASCO EHC 716 Peltier element to ensure controlled temperature. The first experiment was carried out using 50 nM LiTR, 10 or 100 μM compound to be tested, 150 μM trypanothione (trypanothione disulfide purchased from Bachem), and 100 μM NADPH (tetrasodium salt, purchased from Calbiochem). The best inhibitor candidates were then tested at concentrations ranging from 1 nM to 250 μM to determine the IC50. Assays were initiated upon addition of 100 μM NADPH to 50 nM LiTR or hGR (human glutathione reductase purchased from Sigma-Aldrich) in the presence of different concentration of compounds and 150 μM trypanothione. For both experiments, the oxidation of NADPH was followed as a decrease in absorbance at 340 nm. For each concentration of compound, the initial velocity of the NADPH oxidation was used to determine the percentage of LiTR activity with respect to that in the absence of any compound. The IC50 was determined upon fitting the residual activity of TR as a dose–response logistic equation defined as ymin + (ymax – ymin)/(1 + (x/IC50)^slope). […] The Ki was determined graphically upon linear fitting of data points for each trypanothione concentration. Data analysis was performed with QtiPlot 0.9.8.9 svn 2288, and graphs were made with Matplotlib.
(§2) Figure S3. Inhibition assay of LiTR (red) and hGR (grey) with compounds 5-6, 9-10 and 14.
(§3) Enzymatic assays were carried out at 25°C on a JASCO V650 spectrophotometer equipped with a JASCO EHC716 Peltier unit. Compound concentrations used during the experiments range from 1 […]
(§4) higher than 30 µM and 20 µM, respectively. Briefly, 50 nM LiTR or hGR (Sigma Aldrich) were mixed in 50 mM HEPES pH 7.4, 40 mM NaCl with each compound and 150 µM trypanothione or glutathione. After 3-minute incubation at 25°C, the measurement was initiated upon addition of 100 µM NADPH. The oxidation of NADPH was followed as a decrease in absorbance at 340 nm. Each initial velocity of LiTR enzymatic reaction with the compounds was expressed as a percentage of residual activity with respect to that in the absence of compound. Each data point is the mean of two measurements. The IC50 was determined upon fitting the data as a dose response logistic equation defined by the Kaleidagraph software as ymin+(ymax-ymin)/(1+(x/IC50)^slope).
(§5) (1 picture or pasted object on this page, not shown here)

[3] = molecular target: T2, hGR (human glutathione reductase) (Homo sapiens, UniProt P00390); experiment: hGR enzymatic inhibition assay (NADPH oxidation at 340 nm); type: biochemical; conditions: for IC50: 50 nM hGR, 100 μM NADPH, 25 °C; for SI (ratio of GR IC50/TR IC50): hGR versus LiTR
T2 construct: purchased Sigma-Aldrich
T2 sequence (P00390 44-522): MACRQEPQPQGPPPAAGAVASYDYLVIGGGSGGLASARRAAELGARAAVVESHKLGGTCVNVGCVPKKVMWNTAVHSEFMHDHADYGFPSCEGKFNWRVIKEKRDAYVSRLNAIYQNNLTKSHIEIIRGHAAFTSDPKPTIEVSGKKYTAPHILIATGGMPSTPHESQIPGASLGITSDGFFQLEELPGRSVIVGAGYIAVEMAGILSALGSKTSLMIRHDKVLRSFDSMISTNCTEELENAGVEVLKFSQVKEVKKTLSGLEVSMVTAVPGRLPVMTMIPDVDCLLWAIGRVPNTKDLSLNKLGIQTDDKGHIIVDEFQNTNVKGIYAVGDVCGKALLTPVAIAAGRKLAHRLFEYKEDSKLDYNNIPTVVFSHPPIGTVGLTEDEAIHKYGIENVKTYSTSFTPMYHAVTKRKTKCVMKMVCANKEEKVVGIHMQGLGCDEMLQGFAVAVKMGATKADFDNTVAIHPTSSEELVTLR
Method: as §1, §2, §3, §4, §5

T1 sequence (A4HSF7 1-491): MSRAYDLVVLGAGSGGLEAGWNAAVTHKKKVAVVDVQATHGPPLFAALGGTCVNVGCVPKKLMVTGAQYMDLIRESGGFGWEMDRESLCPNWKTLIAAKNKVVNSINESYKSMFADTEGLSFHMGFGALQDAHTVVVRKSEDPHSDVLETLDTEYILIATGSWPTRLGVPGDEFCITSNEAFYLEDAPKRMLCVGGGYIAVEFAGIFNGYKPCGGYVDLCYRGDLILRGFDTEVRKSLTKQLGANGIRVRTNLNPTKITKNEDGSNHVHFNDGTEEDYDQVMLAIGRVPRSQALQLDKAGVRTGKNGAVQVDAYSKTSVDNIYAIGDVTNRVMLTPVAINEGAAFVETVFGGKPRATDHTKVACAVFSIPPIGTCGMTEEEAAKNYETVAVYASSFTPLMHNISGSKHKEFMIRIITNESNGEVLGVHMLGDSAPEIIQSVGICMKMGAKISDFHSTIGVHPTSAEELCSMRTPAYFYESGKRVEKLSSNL

Structure (SMILES)	EC50 [1] [µM]	EC50 ([1]; Leishmania infantum) [µM]	IC50 [2] [µM]	gain in LiTR IC50 with respect to 5 [2]	remaining activity at 10 µM [2] [%]	IC50 [3] [µM]	SI (ratio of GR IC50/TR IC50) [3]
C[N+]1(CCCc2ccccc2)CCN(C(=O)N(Cc2ccc(C(=O)NCCc3ccc(F)cc3)o2)c2ccc(F)cc2)CC1.[I-] [Compound 9, 4-(((5-((4-Fluorophenethyl)carbamoyl)furan-2-yl)methyl)(4-fluorophenyl)carbamoyl)-1-methyl-1-(3-phenylpropyl)piperazin-1-ium Iodide]	10.4 ± 1.1	10.4	20.5 ± 2	about 3 fold	48.5 ± 7.9	62.4 ± 12.4	3.0
O=C(NCCc1ccc(F)cc1)c1ccc(CN(C(=O)N2CC[N+](CCCc3ccccc3)(Cc3ccc(Cl)c(Cl)c3)CC2)c2ccc(F)cc2)o1.[I-] [Compound 10, 1-(3,4-Dichlorobenzyl)-4-(((5-((4-fluorophenethyl)carbamoyl)furan-2-yl)methyl)(4-fluorophenyl)carbamoyl)-1-(3-phenylpropyl)piperazin-1-ium Iodide]		11 ± 1.9	1.31 ± 0.07	42 fold	22 ± 11.6	2.3 ± 0.1	1.7
O=C(NCCc1ccc(F)cc1)c1ccc(CNC(=O)N2CC[N+](CCCc3ccccc3)(Cc3ccc(Cl)c(Cl)c3)CC2)o1.[I-] [Compound 14, 1-(3,4-Dichlorobenzyl)-4-(((5-((4-fluorophenethyl)carbamoyl)furan-2-yl)methyl)carbamoyl)-1-(3-phenylpropyl)piperazin-1-ium Iodide]		8.98 ± 0.4	2.35 ± 0.21	23 fold	10.3 ± 2.8	3.7 ± 0.3	1.6
